Laboratory results from patent US20110312930A1, “Aryl compounds with aminoalkyl substituents and their use” (BAYER SCHERING PHARMA AKTIENGESELLSCHAFT, priority 2008, published 2011).

Test system: HCT 116 cells transfected with a luciferase reporter under the control of an HIF-responsive sequence
Experiment: HIF-luciferase assay
Type: cell-based
Details: Homo sapiens; HCT 116 HIF-luciferase reporter cells, hypoxia chamber (1% O2), 24 h, luminescence
Protocol: HCT 116 cells were transfected in a stable manner with a plasmid which contained a luciferase reporter under the control of an HIF-responsive sequence. These cells were sown in microtitre plates [20 000 cells/cavity in RPMI 1640 medium with 10% foetal calf serum (FCS) and 100 μg/ml of hygromycin]. Incubation was carried out overnight under standard conditions (5% CO2, 21% O2, 37° C., moistened). The following morning the cells were incubated with various concentrations of the test substances (0-10 μmol/l) in a hypoxia chamber (1% O2). After 24 h, Bright Glo reagent (Promega, Wisconsin, USA) was added in accordance with the manufacturer's instructions, and after 5 min the luminescence was measured. Cells which were incubated under normoxia served as background controls.

Structure (SMILES) | IC50 [nM]
Cc1cc(-c2nc(-c3ccc(S(=O)(=O)C(F)(F)F)cc3)no2)nn1Cc1ccc(NCCN2CCOCC2)nc1 [Example 22] | 10
Cc1cc(-c2nc(-c3ccc(OC(F)(F)F)cc3)no2)nn1Cc1ccc(NCCCN2CCCC2=O)nc1 [Example 74] | 8
Cc1cc(-c2nc(-c3ccc(OC(F)(F)F)cc3)no2)nn1Cc1ccc(NCCN2CCOCC2)cc1 [Example 60, 4-[(5-Methyl-3-{3-[4-(trifluoromethoxy)phenyl]-1,2,4-oxadiazol-5-yl}-1H-pyrazol-1-yl)methyl]-N-[2-(morpholin-4-yl)ethyl]aniline] | 9
Cc1cc(-c2nc(-c3ccc(OC(F)(F)F)cc3)no2)nn1Cc1ccc(NCCN2CCOCC2)nc1 [Example 24] | 10
Cc1cc(-c2nc(-c3ccc(OC(F)(F)F)cc3)no2)nn1Cc1cccc(C(=O)N(C)CCN(C)C)c1 [Example 48, N-[2-(Dimethylamino)ethyl]-N-methyl-3-[(5-methyl-3-{3-[4-(trifluoromethoxy)phenyl]-1,2,4-oxa-diazol-5-yl}-1H-pyrazol-1-yl)methyl]benzenecarboxamide] | 10
Cc1cc(-c2nc(-c3ccc(OC(F)(F)F)cc3)no2)cn1Cc1ccc(NCCN2CCC(O)CC2)nc1 [Example 16] | 8
Cc1cc(-c2nc(-c3ccc(OC(F)(F)F)cc3)no2)nn1Cc1cccc(OCCN(C)C)c1 [Example 124, N,N-Dimethyl-2-{3-[(5-methyl-3-{3-[4-(trifluoromethoxy)phenyl]-1,2,4-oxadiazol-5-yl}-1H-pyrazol-1-yl)methyl]phenoxy}ethanamine] | 5
Cc1cc(-c2nc(-c3ccc(C(C)(C)C(F)(F)F)cc3)no2)nn1Cc1ccc(NCCN2CCCC2)nc1 [Example 14, 5-[(5-Methyl-3-{3-[4-(1,1,1-trifluoro-2-methylpropan-2-yl)phenyl]-1,2,4-oxadiazol-5-yl}-1H-pyrazol-1-yl)methyl]-N-[2-(pyrrolidin-1-yl)ethyl]pyridine-2-amine] | 7
Cc1cc(-c2nc(-c3ccc(OC(F)(F)F)cc3)no2)nn1Cc1ccc(SCCN2CCCC2)cc1 [Example 67, 5-[5-Methyl-1-(4-{[2-(pyrrolidin-1-yl)ethyl]sulphanyl}benzyl)-1H-pyrazol-3-yl]-3-[4-(trifluoromethoxy)phenyl]-1,2,4-oxadiazole] | 10
Cc1cc(-c2nc(-c3ccc(C(C)(C)C)cc3)no2)cn1Cc1ccc(NCCN2CCCC2)nc1 [Example 71] | 6
Cc1cc(-c2nc(-c3ccc(OC(F)(F)F)cc3)no2)nn1Cc1ccc(NCCN2CCCC2=O)nc1 [Example 73] | 8
Cc1cc(-c2nc(-c3ccc(OC(F)(F)F)cc3)no2)nn1Cc1ccc(NCCN2CCC(F)(F)CC2)nc1 [Example 103, N-[2-(4,4-Difluoropiperidin-1-yl)ethyl]-5-[(5-methyl-3-{3-[4-(trifluoromethoxy)phenyl]-1,2,4-oxa-diazol-5-yl}-1H-pyrazol-1-yl)methyl]pyridine-2-amine] | 3
Cc1cc(-c2nc(-c3ccc(OC(F)(F)F)cc3)no2)nn1Cc1cccc(OCCN2CCCC2)c1 [Example 57, 5-(5-Methyl-1-{3-[2-(pyrrolidin-1-yl)ethoxy]benzyl}-1H-pyrazol-3-yl)-3-[4-(trifluoromethoxy)-phenyl]-1,2,4-oxadiazole] | 10
Cc1cc(-c2nc(-c3ccc(OC(F)(F)F)cc3)no2)nn1Cc1cccc(OCCN2CCOCC2)c1 [Example 123, 4-(2-{3-[(5-Methyl-3-{3-[4-(trifluoromethoxy)phenyl]-1,2,4-oxadiazol-5-yl}-1H-pyrazol-1-yl)-methyl]phenoxy}ethyl)morpholine] | 1
Cc1cc(-c2nc(-c3ccc(OC(F)(F)F)cc3)no2)nn1Cc1ccc(NCCN2CCS(=O)(=O)CC2)nc1 [Example 102, N-[2-(1,1-Dioxidothiomorpholin-4-yl)ethyl]-5-[(5-methyl-3-{3-[4-(trifluoromethoxy)phenyl]-1,2,4-oxadiazol-5-yl}-1H-pyrazol-1-yl)methyl]pyridine-2-amine] | 2.5
